Our source for the EC50 values is patent US9067943B2, “[1,2,3]triazolo[4,5-D]pyrimidine derivatives” (priority 2011, dated 2015).

pEC50: −log10 of the molar value. Read-outs that look alike come from different tables or passages of the source. A value given as a limit tells only on which side of the number the result lay.

The target in experiment [1] is T1, human CB1 receptors (Homo sapiens, UniProt P21554).
T1 construct: expressed in transfected cells; host or cells: CHO cells
Description: cAMP assay. It counts as cell-based. The method, boiled down:
(§1)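 CHO cells expressing human CB1 or CB2 were preincubated 30 min at 30 °C in Krebs Ringer bicarbonate buffer with 1 mM IBMX, then exposed to compounds for 30 min at 30 °C. cAMP was measured by time-resolved FRET against a cAMP standard curve, and EC50 values were derived.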
(In general: Cyclic AMP is a second messenger, typically raised through Gs and lowered through Gi signalling.)

Experiment [2] has as its target T2, human CB2 receptors (Homo sapiens, UniProt P34972).
T2 construct: expressed in transfected cells; host or cells: CHO cells
Put plainly: cAMP assay. The class given is cell-based. The method, boiled down: as §1

Setting [3] is: functional cAMP assay, CHO cells expressing human CB2, read-out: human CB2 EC50.

T1 sequence (P21554 whole entry): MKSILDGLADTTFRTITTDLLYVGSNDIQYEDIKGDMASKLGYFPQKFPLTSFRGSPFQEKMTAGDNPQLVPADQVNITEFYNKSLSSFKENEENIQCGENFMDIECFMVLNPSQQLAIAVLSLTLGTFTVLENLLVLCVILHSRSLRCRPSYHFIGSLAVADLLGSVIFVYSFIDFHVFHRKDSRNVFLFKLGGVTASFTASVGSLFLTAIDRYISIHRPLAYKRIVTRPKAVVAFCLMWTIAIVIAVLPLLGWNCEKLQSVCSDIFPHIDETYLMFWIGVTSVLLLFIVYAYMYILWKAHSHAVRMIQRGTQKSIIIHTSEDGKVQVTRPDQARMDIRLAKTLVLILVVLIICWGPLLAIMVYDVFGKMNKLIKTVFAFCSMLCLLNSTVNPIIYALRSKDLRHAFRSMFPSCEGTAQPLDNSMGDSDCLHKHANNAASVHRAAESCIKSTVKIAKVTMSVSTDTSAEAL
T2 sequence (P34972 whole entry): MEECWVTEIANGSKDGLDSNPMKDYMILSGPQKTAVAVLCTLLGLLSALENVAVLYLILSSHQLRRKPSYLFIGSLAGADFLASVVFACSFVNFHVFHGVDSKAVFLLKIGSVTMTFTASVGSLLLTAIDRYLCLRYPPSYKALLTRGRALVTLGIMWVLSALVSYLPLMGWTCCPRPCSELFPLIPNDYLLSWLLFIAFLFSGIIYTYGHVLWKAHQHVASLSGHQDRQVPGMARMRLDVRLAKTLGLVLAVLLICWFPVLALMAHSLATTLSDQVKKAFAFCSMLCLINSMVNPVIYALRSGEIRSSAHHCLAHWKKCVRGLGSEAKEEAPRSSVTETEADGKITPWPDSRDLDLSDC

As for `CC(C)(C)c1nc(N2CC[C@@](C)(O)C2)c2nn(Cc3ccccc3S(C)(=O)=O)nc2n1` [Example 126-b, (R)-1-[5-tert-Butyl-2-(2-methanesulfonyl-benzyl)-2H-[1,2,3]triazolo[4,5-d]pyrimidin-7-yl]-3-methyl-pyrrolidin-3-ol], the figures for the pEC50 in experiment [1] and in experiment [2] were less than 5.00 and 7.62, respectively.
Consider `Cc1c(Cn2nc3nc(C(C)(C)C)nc(N4CCC(F)(F)C4)c3n2)ccc[n+]1[O-]` [Example 84, 5-tert-Butyl-7-(3,3-difluoro-pyrrolidin-1-yl)-2-(2-methyl-1-oxy-pyridin-3-ylmethyl)-2H-[1,2,3]triazolo[4,5-d]pyrimidine], for which the pEC50 (usually −log10 of the EC50, conventionally taken in molar units) in experiment [1] is less than 5.00; in experiment [2], 7.03.
Take `C[C@H](Oc1nc(N2CCC(F)(F)C2)c2nn(CCC(F)(F)F)nc2n1)C(F)(F)F` [Example 122, 7-(3,3-Difluoro-pyrrolidin-1-yl)-5-((S)-2,2,2-trifluoro-1-methyl-ethoxy)-2-(3,3,3-trifluoro-propyl)-2H-[1,2,3]triazolo[4,5-d]pyrimidine]: the pEC50 was less than 5.00 in experiment [1] and 8.08 in experiment [2].
As for `CC(C)(C)c1nc(N2CCC(F)(F)C2)c2nn(CCO)nc2n1` [Example 5, 2-[5-tert-Butyl-7-(3,3-difluoro-pyrrolidin-1-yl)-[1,2,3]triazolo[4,5-d]pyrimidin-2-yl]-ethanol], the negative-log EC50 (pEC50) is less than 5.00 in experiment [1] and 7.19 in experiment [2].
The matching figures for `Cn1nncc1Cn1nc2nc(C(C)(C)C)nc(N3CC(F)(F)C(F)(F)C3)c2n1` [Example 104, 5-tert-Butyl-2-(3-methyl-3H-[1,2,3]triazol-4-ylmethyl)-7-(3,3,4,4-tetrafluoro-pyrrolidin-1-yl)-2H-[1,2,3]triazolo[4,5-d]pyrimidine]: less than 5.00 and 8.00.
For the compound `CC(C)(C)c1nc(N2CCC(F)(F)C2)c2nn(CC3CCCCC3)nc2n1` [Example 6, 5-tert-Butyl-2-cyclohexylmethyl-7-(3,3-difluoro-pyrrolidin-1-yl)-2H-[1,2,3]triazolo[4,5-d]pyrimidine], the pEC50 was 6.51 in experiment [1] and 9.30 in experiment [2].
On to `CC(C)(C)c1nc(N2CCC(F)(F)C2)c2nn(Cc3ccc(F)cc3Cl)nc2n1` [Example 13, 5-tert-Butyl-2-(2-chloro-4-fluoro-benzyl)-7-(3,3-difluoro-pyrrolidin-1-yl)-2H-[1,2,3]triazolo[4,5-d]pyrimidine], for which the pEC50 in experiment [1] was less than 5.00; in experiment [2] it was 9.00.
Consider `Cc1nnc(Cn2nc3nc(C(C)(C)C)nc(N4CC[C@H](O)C4)c3n2)o1` [Example 87, (S)-1-[5-tert-Butyl-2-(5-methyl-[1,3,4]oxadiazol-2-ylmethyl)-2H-[1,2,3]triazolo[4,5-d]pyrimidin-7-yl]-pyrrolidin-3-ol], for which the negative logarithm of the EC50 (pEC50) in experiment [1] is less than 5.00; in experiment [2] (setting [3]) it was 6.59.
As for `Cc1nnc(Cn2nc3nc(C(C)(C)C)nc(N4CC(F)(F)C(F)(F)C4)c3n2)o1` [Example 101, 5-tert-Butyl-2-(5-methyl-[1,3,4]oxadiazol-2-ylmethyl)-7-(3,3,4,4-tetrafluoro-pyrrolidin-1-yl)-2H-[1,2,3]triazolo[4,5-d]pyrimidine], the pEC50 is less than 5.00 in experiment [1] and 7.80 in experiment [2].
Take `Cc1cc(Cn2nc3nc(C(C)(C)C)nc(N4CC[C@H](O)C4)c3n2)n(C)n1` [Example 91, (S)-1-[5-tert-Butyl-2-(2,5-dimethyl-2H-pyrazol-3-ylmethyl)-2H-[1,2,3]triazolo[4,5-d]pyrimidin-7-yl]-pyrrolidin-3-ol]: the negative logarithm of the EC50 (pEC50) is less than 5.00 in experiment [1] and 6.91 in experiment [2] (setting [3]).
Consider `Cc1noc(Cn2nc3nc(O[C@@H](C)C(F)(F)F)nc(N4CCC(F)(F)C4)c3n2)n1` [Example 119, 7-(3,3-Difluoro-pyrrolidin-1-yl)-2-(3-methyl-[1,2,4]oxadiazol-5-ylmethyl)-5-((S)-2,2,2-trifluoro-1-methyl-ethoxy)-2H-[1,2,3]triazolo[4,5-d]pyrimidine], for which the figures for the pEC50 in experiment [1] and in experiment [2] (setting [3]) were less than 5.00 and 6.36, respectively.
As to `Cc1nonc1Cn1nc2nc(O[C@@H](C)C(F)(F)F)nc(N3CCC(F)(F)C3)c2n1` [Example 121, 7-(3,3-Difluoro-pyrrolidin-1-yl)-2-(4-methyl-furazan-3-ylmethyl)-5-((S)-2,2,2-trifluoro-1-methyl-ethoxy)-2H-[1,2,3]triazolo[4,5-d]pyrimidine], the results for the pEC50 in experiment [1] and in experiment [2] were less than 5.00 and 8.12, respectively.
Take `CC(C)(C)c1nc(N2CC[C@H](O)[C@@H]2CO)c2nn(Cc3nnnn3C3CC3)nc2n1` [Example 97, (2S,3S)-1-[5-tert-Butyl-2-(1-cyclopropyl-1H-tetrazol-5-ylmethyl)-2H-[1,2,3]triazolo[4,5-d]pyrimidin-7-yl]-2-hydroxymethyl-pyrrolidin-3-ol]: the pEC50 is less than 5.00 in experiment [1] and 6.84 in experiment [2] (setting [3]).
For the compound `Cc1nonc1Cn1nc2nc(C(C)(C)C)nc(N3CC[C@H](O)[C@@H]3CO)c2n1` [Example 98, (2S,3S)-1-[5-tert-Butyl-2-(4-methyl-furazan-3-ylmethyl)-2H-[1,2,3]triazolo[4,5-d]pyrimidin-7-yl]-2-hydroxymethyl-pyrrolidin-3-ol], the pEC50 in experiment [1] is less than 5.00; in experiment [2] (setting [3]) it was 6.68.
As for `CC(C)(C)c1nc(N2CCC(F)(F)C2)c2nn(Cc3cccc(Cl)c3Cl)nc2n1` [Example 9, 5-tert-Butyl-2-(2,3-dichloro-benzyl)-7-(3,3-difluoro-pyrrolidin-1-yl)-2H-[1,2,3]triazolo[4,5-d]pyrimidine], the negative logarithm of the EC50 (pEC50) in experiment [1] was less than 5.00; in experiment [2] it was 8.47.
The matching figures for `CC(C)(C)c1nc(N2CCC(F)(F)C2)c2nn(Cc3c(F)ccc(F)c3Cl)nc2n1` [Example 20, 5-tert-Butyl-2-(2-chloro-3,6-difluoro-benzyl)-7-(3,3-difluoro-pyrrolidin-1-yl)-2H-[1,2,3]triazolo[4,5-d]pyrimidine]: 7.47 and 9.70.
The matching figures for `CC(C)(C)c1nc(N2CCC(F)(F)C2)c2nn(CCc3cccc(Cl)c3)nc2n1` [Example 42, 5-tert-Butyl-2-[2-(3-chloro-phenyl)-ethyl]-7-(3,3-difluoro-pyrrolidin-1-yl)-2H-[1,2,3]triazolo[4,5-d]pyrimidine]: less than 5.00 and 7.97.
The matching figures for `C[C@H](c1ccccc1Cl)n1nc2nc(C(C)(C)C)nc(N3CCC(F)(F)C3)c2n1` [Example 28, 5-tert-Butyl-2-[(R)-1-(2-chloro-phenyl)-ethyl]-7-(3,3-difluoro-pyrrolidin-1-yl)-2H-[1,2,3]triazolo[4,5-d]pyrimidine]: 6.87 and 9.70.
Regarding `CC(=O)N[C@H]1CCN(c2nc(O[C@@H](C)C(F)(F)F)nc3nn(Cc4ccccc4C(F)(F)F)nc23)C1` [Example 142, N—{(S)-1-[2-(2-Trifluoromethyl-benzyl)-5-((S)-2,2,2-trifluoro-1-methyl-ethoxy)-2H-[1,2,3]triazolo[4,5-d]pyrimidin-7-yl]-pyrrolidin-3-yl}-acetamide], the pEC50 was less than 5.00 in experiment [1] and 5.95 in experiment [2] (setting [3]).
`Cc1nonc1Cn1nc2nc(NC(C)(C)C)nc(N3CCC(F)(F)C3)c2n1` [Example 140, tert-Butyl-[7-(3,3-difluoro-pyrrolidin-1-yl)-2-(4-methyl-furazan-3-ylmethyl)-2H-[1,2,3]triazolo[4,5-d]pyrimidin-5-yl]-amine]: the pEC50 in experiment [1] was less than 5.00; in experiment [2] it was 8.21.
For the compound `CC(C)(C)c1nc(N2CCC(F)(F)C2)c2nn(Cc3ccccc3S(C)(=O)=O)nc2n1` [Example 49, 5-tert-Butyl-7-(3,3-difluoro-pyrrolidin-1-yl)-2-(2-methanesulfonyl-benzyl)-2H-[1,2,3]triazolo[4,5-d]pyrimidine], the figures for the pEC50 in experiment [1] and in experiment [2] were 6.82 and 9.40, respectively.
For the compound `CN(C)c1c(Cl)cncc1Cn1nc2nc(C(C)(C)C)nc(N3CCC(F)(F)C3)c2n1` [Example 71, {3-[5-tert-Butyl-7-(3,3-difluoro-pyrrolidin-1-yl)-[1,2,3]triazolo[4,5-d]pyrimidin-2-ylmethyl]-5-chloro-pyridin-4-yl}-dimethyl-amine], the negative-log EC50 (pEC50) in experiment [1] was 6.98; in experiment [2], 8.85.
On the same counts, the results for `CC(C)(C)c1nc(N2CCC(F)(F)C2)c2nn(Cc3cc(Cl)cnc3Cl)nc2n1` [Example 37, 5-tert-Butyl-2-(2,5-dichloro-pyridin-3-ylmethyl)-7-(3,3-difluoro-pyrrolidin-1-yl)-2H-[1,2,3]triazolo[4,5-d]pyrimidine] are less than 5.00 and 9.05.
On to `CC(C)(C)c1nc(N2CCC(F)(F)C2)c2nn(CC(=O)c3ccccc3Cl)nc2n1` [Example 47, 2-[5-tert-Butyl-7-(3,3-difluoro-pyrrolidin-1-yl)-[1,2,3]triazolo[4,5-d]pyrimidin-2-yl]-1-(2-chloro-phenyl)-ethanone], for which the pEC50 in experiment [1] is less than 5.00; in experiment [2], 9.22.
With `CC(C)(C)c1nc(N2CCC(F)(F)C2)c2nn(Cc3ccccc3C(F)(F)F)nc2n1` [Example 22, 5-tert-Butyl-7-(3,3-difluoro-pyrrolidin-1-yl)-2-(2-trifluoromethyl-benzyl)-2H-[1,2,3]triazolo[4,5-d]pyrimidine], the pEC50 in experiment [1] is less than 5.00; in experiment [2], 9.70.
Take `Cc1nonc1Cn1nc2nc(C(C)(C)C)nc(N3CC[C@@](C)(O)C3)c2n1` [Example 131-b, (R)-1-[5-tert-Butyl-2-(4-methyl-furazan-3-ylmethyl)-2H-[1,2,3]triazolo[4,5-d]pyrimidin-7-yl]-3-methyl-pyrrolidin-3-ol]: the values for the pEC50 in experiment [1] and in experiment [2] were less than 5.00 and 7.21, respectively.
In the case of `CC(C)(C)c1nc(N2CC[C@](C)(O)C2)c2nn(Cc3nnnn3C3CC3)nc2n1` [Example 133-a, (S)-1-[5-tert-Butyl-2-(1-cyclopropyl-1H-tetrazol-5-ylmethyl)-2H-[1,2,3]triazolo[4,5-d]pyrimidin-7-yl]-3-methyl-pyrrolidin-3-ol], the figures for the pEC50 in experiment [1] and in experiment [2] (setting [3]) were less than 5.00 and 6.90, respectively.
